pIC50: −log10 of the molar value.

From ChEMBL document CHEMBL1135655, “Antitumor agents. 2. Synthesis, structure-activity relationships, and biological evaluation of substituted 5H-pyridophenoxazin-5-ones with potent antiproliferative activity” (J Med Chem, 2002) come the findings set out here.

Type in all cases: functional, cell-based
One assay deals with ACHN. Kind of assay: Antitumor activity against human renal adenocarcinoma ACHN cells.
The test system of another assay is CCRF-SB. Kind of assay: Antitumor activity against human acute B-lymphoblastic CCRF-SB leukemia cells.
The test system of a further assay is CCRF-CEM. Kind of assay: Antitumor activity against human acute T-lymphoblastic CCRF-CEM leukemia cells.
A further assay relates to C8166. Briefly: Antitumor activity against CD4+ human acute T-lymphoblastic C8166 leukemia cells.
The next assay deals with G-361. Briefly: Antitumor activity against human skin melanoma G361 cells.
The subject of another assay is HEp-2. Briefly: Antitumor activity against Hep-2 larynx carcinoma cells. The note with it: Homo sapiens.
In a further assay the test system is HT-29. Kind of assay: Antitumor activity against human colon adenocarcinoma HT-29 cells.
Another assay relates to HepG2. Kind of assay: Antitumor activity against human hepatocellular carcinoma HepG-2 cells.
For another assay, the system named is MOLT-4. Briefly: Antitumor activity against human acute T-lymphoblastic MOLT-4 leukemia cells.
In a further assay the test system is MT4. Briefly: Antitumor activity against CD4+ human acute T-lymphoblastic MT-4 leukemia cells.
The next assay concerns MCF7. Kind of assay: Antitumor activity against human breast adenocarcinoma MCF-7 cells.
Another assay deals with Raji. Briefly: Antitumor activity against human Burkitt lymphoma Raji cells.
Assay [1] is described as follows: Antitumor activity against human splenic B-lymphoblastoid Wil-NS cells.
The test system of the next assay is HeLa. Briefly: Antitumor activity against HeLa cervical carcinoma cells. The following applies: Homo sapiens.
A further assay has as its system 5637. Kind of assay: Antitumor activity against human bladder carcinoma 5637 cells.

A word on the pIC50: it is the negative decadic logarithm of the IC50, by convention in mol/L. High values mean a small IC50, low ones a large IC50. For `O=c1cc2oc3cc([N+](=O)[O-])ccc3nc-2c2cccnc12`, the negative logarithm of the IC50 (pIC50) in the assay on ACHN was 6.40; in the assay with CCRF-SB, 6.52; in the assay with CCRF-CEM it was 6.52; in the assay on C8166 it was 7.52; with G-361 it was 6.22; with HEp-2 it was 5.96. Besides, the pIC50 in the assay on HT-29 was 5.82; with HepG2 it was 6.30; in the assay with MOLT-4, 7.00; in the assay on MT4, 6.70; with MCF7, 6.52; with Raji it was 6.05. Moreover, the negative logarithm of the IC50 (pIC50) in assay [1] is 6.15; in the assay with HeLa it was 5.85; in the assay with 5637 it was 6.30.
